The structures appear in SMILES notation. Marks after values point to notes of the source that are not given here.

The test system of this experiment is collapsibility of the upper airways. Description: Animal model of obstructive sleep apnoea in the pig (collapse of the upper airways under negative pressure after nasal administration). The class given is in vivo, German Landrace pigs. The source says:
The effects of the formulations according to the invention of the inhibitors of TASK-1 and/or TASK-3 channels on the activation threshold of the genioglossus muscle by negative pressure and the collapsibility of the upper airways were investigated in a pig model for obstructive sleep apnoea. Using negative pressure, it is possible to induce collapse and thus obstruction of the upper airways in anaesthetized, spontaneously breathing pigs [Wirth et al., Sleep 36, 699-708 (2013)]. German Landrace pigs were used for the model. Since the nasal axis is in an almost vertical position in humans in a horizontal sleeping position, the pigs in the experiments were fixed in a sitting position (70 degrees), wherein the nose pointed upwards. After nasal administration, the formulation therefore flowed downwards over all regions of the upper airways. The pigs were anaesthetized and tracheotomized. One cannula each was inserted into the rostral and the caudal part of the trachea. Using a T connector, the rostral cannula was connected on the one hand to a device generating negative pressure and on the other hand to the caudal cannula. Using a T connector, the caudal cannula was connected to the rostral cannula and to a tube which allowed spontaneous breathing circumventing the upper airways. By appropriate closing and opening of the tubes it was thus possible for the pig to change from normal nasal breathing to breathing via the caudal cannula during the time when the upper airways were isolated and were connected to the device for generating negative pressure. The muscle activity of the Musculus genioglossus was recorded by electromyogram (EMG). At certain points in time, the collapsibility of the upper airways was tested by having the pig breathe via the caudal cannula and applying negative pressures of −50, −100 and −150 mbar (corresponding to −50, −100 and −150 cm water column (cm H2O)) to the upper airways. This caused the upper airways to collapse, which manifested itself in an interruption of the airflow and a pressure drop in the tube system. This test was conducted prior to administration of the test substance and at certain intervals after administration of the test substance. An appropriately effective test substance could prevent this collapse of the airways in the inspiratory phase. After changeover from nasal breathing to breathing via the caudal cannula, it was not possible to measure any EMG activity of the Musculus genioglossus in the anaesthetized pig. As a further test, the negative pressure at which EMG activity restarted was then determined. This threshold value was, if a test substance was effective, shifted to more positive values. The test was likewise conducted prior to the administration of the test substance and at certain intervals after the administration of the test substance. The test substance was administered by the nasal route. The results shown in the tables which follow were conducted with the compounds listed in Table 1 as Example 1, Example 3 and Example 4. Unless stated otherwise, the data were measured at a negative pressure of −100 mbar (corresponding to −100 cm water column (cm H2O)) on the upper airways. The active ingredients listed in Table 1 as Example 1, Example 3 and Example 4 were dissolved in the various formulations listed in Table 2 below and administered in an amount of 0 μg, 3 μg, 10 μg, 30 μg or 100 μg per pig. The active ingredient formulation or the pure vehicle was each administered with a pipette at a volume of 400 μl in each nostril. The duration of action in this pig model is defined as the time [min] in which a collapse of the upper airways was not observed in any animal, as a mean value of the specified number of animals. A duration of action specified as “>” X min signifies that the experiment was terminated at X min and up to this point a collapse of the upper airways was still not observed in any animal

As to `O=C(C1CCCC1)N1CCN(Cc2c(-c3ccc(Br)cc3)nc3ccccn23)CC1` [Example 1, (4-{[2-(4-bromophenyl)imidazo[1,2-a]pyridin-3-yl]methyl}piperazin-1-yl)(cyclopentyl)methanone], the “Duration of action, mean value” is listed as 150 min (Formulation 1 (0% PEG400), 10 μg nasal, reduced pressure -50 mbar); 120 min (Formulation 1 (0% PEG400), 10 μg nasal, reduced pressure -100 mbar); >210 min (Formulation 3 (20% w/v PEG400), 10 μg nasal, reduced pressure -50 mbar); 180 min (Formulation 3 (20% w/v PEG400), 10 μg nasal, reduced pressure -100 mbar).
`COc1cccc(C(=O)N2CCN(Cc3c(-c4ccc(Cl)cc4)nc4ccccn34)CC2)n1` [Example 3, (4-{[2-(4-chlorophenyl)imidazo[1,2-a]pyridin-3-yl]methyl}piperazin-1-yl)(6-methoxypyridin-2-yl)methanone]: the “Duration of action, mean value” by setting is: (Formulation 1 (phosphate buffer pH 7/polysorbate 80 90/10, 0% PEG400), 3 μg nasal per pig, -100 mbar) 150 min; (Formulation 1 (phosphate buffer pH 7/polysorbate 80 90/10, 0% PEG400), 30 μg nasal per pig, -100 mbar) 180* min; (Formulation 2 (100% w/v PEG400), 3 μg nasal, -100 mbar) >240 min; (Formulation 3 (phosphate buffer pH 7/polysorbate 80/PEG400 70/10/20), 3 μg nasal per pig, -100 mbar) 180 min; (Formulation 3 (phosphate buffer pH 7/polysorbate 80/PEG400 70/10/20), 30 μg nasal per pig, -100 mbar) 300 min; (Formulation 4 (5% w/v PEG400, 10% polysorbate 80, 85% phosphate buffer pH 7), 3 μg nasal, -100 mbar) 180 min. Further, the “Duration of action, mean value” by setting is: (Formulation 5 (2.5% w/v PEG400, 10% polysorbate 80, 87.5% phosphate buffer pH 7), 3 μg nasal, -100 mbar) 150 min; (Formulation 6 (20% w/v PEG400, 2.5% w/v glycerol 85%, 10% polysorbate 80, 67.5% phosphate buffer pH 7), 3 μg nasal, -100 mbar) 240 min; (Formulation 7 (20% w/v propylene glycol, 10% polysorbate 80, 70% phosphate buffer pH 7), 30 μg nasal, -100 mbar) 180 min; (Formulation 9 (1.25% w/v Na-CMC, 10% polysorbate 80, 88.75% phosphate buffer pH 7, no PEG), 3 μg nasal, -100 mbar) 120 min.
As for `O=C(c1ccccc1F)N1CCN(Cc2c(-c3ccc(Br)cc3)nc3ccccn23)CC1` [Example 4, (4-{[2-(4-bromophenyl)imidazo[1,2-a]pyridin-3-yl]methyl}piperazin-1-yl)(2-fluorophenyl)methanone], the “Duration of action, mean value” (Formulation 1 (0% PEG400), 100 μg nasal, reduced pressure -50 mbar) came to 180 min; the “Duration of action, mean value” (Formulation 1 (0% PEG400), 100 μg nasal, reduced pressure -100 mbar) is recorded as 180 min; the “Duration of action, mean value” (Formulation 3 (20% w/v PEG400), 100 μg nasal, reduced pressure -50 mbar) was >210 min; the “Duration of action, mean value” (Formulation 3 (20% w/v PEG400), 100 μg nasal, reduced pressure -100 mbar) was found to be 180 min.

For the origin of these results see patent publication US20200085734A1, “PHARMACEUTICAL DOSAGE FORMS CONTAINING TASK-I AND TASK-3 CHANNEL INHIBITORS, AND THE USE OF SAME IN BREATHING DISORDER THERAPY” (priority 2016, published 2020).
